# Experimental data published in patent US7648993B2, “Methods of treating disorders with Group I mGluR antagonists” (Brown University, priority 2001, dated 2010).
# Experiments:
# [1] = test system: hippocampal slices from mGluR5 knockout mice; assay: DHPG-LTD of field potentials in hippocampal slices from mGluR5 knockout mice and wild-type littermates; type: cell-based
# Procedure: All animals were used in accordance with procedures approved by the Brown University Institutional Animal Care and Use Committee. Hippocampal slices were prepared from postnatal day 21-30 (P21-30) Long Evans rats (Charles River, Cambridge, Mass.) and mGluR5 knockout mice (Lu et al. 1997) as described previously (Huber et al. 2000). For most experiments, CA3 was removed immediately after sectioning. Slices recovered for 1-2 h at room temperature (rats) or at 30° C. (mice) in artificial cerebrospinal fluid (ACSF) containing (in mM) 124 NaCl, 5 KCl, 1.25 NaH2PO4, 26 NaHCO3, 1 MgCl2, 2 CaCl2, and 10 dextrose, saturated with 95% O2-5% CO2. For recording, slices were placed in a submersion recording chamber and perfused with 30° C. ACSF at a rate of 2 ml/min.
# Baseline responses were collected every 10-30 s using a stimulation intensity (10-30 μA; 0.2 ms) yielding 50-60% of the maximal response. Experiments in which there was a>5% drift in the response magnitude during the 20-min baseline period before DHPG or LFS were excluded from further analysis. All experiments with mGluR5 KO mice used wildtype littermates as controls and were performed blind to the genotype, later determined by Therion (Troy, N.Y.). LFS consisted of 900 pulses at 1 Hz. PP-LFS consisted of 900 pairs of stimuli (50-ms interstimulus interval) delivered at 1 Hz. […]
# The group data were analyzed as follows: 1) the initial slopes of the FPs and excitatory postsynaptic potentials (EPSPs), or the amplitude of the excitatory postsynaptic currents (EPSCs), for each experiment were expressed as percentages of the preconditioning or DHPG baseline average, 2) the time scale in each experiment was converted to time from the onset of conditioning or DHPG, and 3) the time-matched, normalized data were averaged across experiments and expressed in the text and figures as the means ±SE. Significant differences between groups were determined using an independent t-test or ANOVA performed on a 5-min average taken 1 h after LFS or DHPG application.
# [2] = test system: high-density cultured hippocampal neurons; assay: Biotinylation and quantitative western blot of surface expressed receptors; type: cell-based, rat; conditions: DHPG 50 μM, 5 min
# Procedure: To confirm the effect of mGluR activation on surface AMPARs using an alternative approach, we treated high-density cultures with DHPG (50 μM, 5 min) or control medium and surface receptors were labeled with biotin 60 minutes later. Biotinylated receptors were precipitated and the ratio of surface to total GluR1 was determined by quantitative western blotting. This biochemical analysis confirmed that surface AMPARs are reduced by DHPG treatment to only 56.8±4.0% of the value in control cultures (n=4 in each treatment group; p<0.01; FIG. 6).
# Biotinylation experiments were performed as previously described^35. Briefly, 2-week-old high-density cultured hippocampal neurons were treated with either control medium or 50 μM DHPG for 5 min, and incubated for 1 h at 37° C. to allow endocytosis to occur. The sister cultures were placed on ice to stop endocytosis and washed two times with ice-cold artificial cerebrospinal fluid (ACSF) containing 124 mM NaCl, 5 mM KCl, 1.25 mM NaH2PO4, 26 mM NaHCO3, 0.8 mM MgCl2, 1.8 mM CaCl2, 10 mM dextrose, and saturated with 95% O2, 5% CO2. Cultures were then incubated with ACSF containing 1 mg/ml Sulfo-NHS-LC-Biotin (Pierce Chemical Company, Rockford, Ill.) for 30 min on ice. Cultures were rinsed in TBS to quench the biotin reaction. […] Quantitative western blots were performed on both total and biotinylated (surface) proteins using anti-GluR1 C-terminal (1:1000, Upstate Biotechnology, Lake Placid, N.Y.) and anti-NR1 N-terminal antibodies (1:1000, Chemicon). […] Digital images, produced by densitometric scans of autoradiographs on a ScanJet IIcx (Hewlett Packard, Palo Alto, Calif.) with DeskScan II software (Hewlett Packard), were quantified using NIH Image 1.60 software. The surface/total ratio was calculated for each culture, and treatment groups were compared using a paired t-test. […] For display purposes, the data are expressed as the ratio of DHPG to control values.
# [3] = test system: cultured hippocampal neurons; assay: Acid strip immunocytochemistry for internalized GluR1 (AMPARs); type: cell-based, rat
compound,measurement,setting,value
"NC(C(=O)O)c1cc(O)cc(O)c1 (racemic) [DHPG, (RS)-3,5-dihydroxyphenylglycine]","DHPG-LTD, FP % of baseline, mGluR5 heterozygous mutants","[1]; 1 h after DHPG, mGluR5 +/−",84±4%
same,"DHPG-LTD, FP % of baseline, wild-type littermate controls","[1]; 1 h after DHPG, wild type",77±2%
same,"DHPG-LTD, FP % of baseline, mGluR5 homozygous mutants","[1]; measured 1 h after DHPG application, mGluR5 −/−",98±3%
same,"surface NR1 (surface/total), % of the value in control cultures","[2]; 60 minutes later, cycloheximide 60 μM with DHPG where named",32.3±8.2%
same,"surface GluR1 (surface/total), % of the value in control cultures",[2]; biotin labeling 60 minutes later,56.8±4.0%
same,internalized GluR1 puncta,"[3]; DHPG 50 μM, 5 min, 15 minutes after treatment onset",1.44±0.17 puncta per 10 μm of dendrite
same,internalized GluR1 puncta,"[3]; DHPG 50 μM, 5 min, 1 hour",1.14±0.15 puncta per 10 μm of dendrite
same,"internalized GluR1 puncta, APV experiment","[3]; DHPG 50 μM, 5 min, APV 50 μM",1.49±0.22 puncta per 10 μm of dendrite
same,"internalized GluR1 puncta, LY344545 experiment","[3]; DHPG 50 μM, 5 min, LY344545 100 μM",1.39±0.34 puncta per 10 μm of dendrite
same,"internalized GluR1 puncta, cycloheximide experiment","[3]; measured at 60 minutes, chx 60 μM applied 15 min before DHPG",1.5±0.27 puncta per 10 μm of dendrite
